This note sets out measurements from ChEMBL document CHEMBL1157520, “Abietane diterpenoids from the bark of Cryptomeria fortunei” (2008).

Holding throughout (type): functional
The subject of experiment [1] is HL-60. Description: Antitumor activity against human HL60 cells at 10^-4 mol/l by MTT assay. Background: Formazan colour is commonly taken as a measure of viable cells.
Experiment [2] concerns HL-60. In words: Antitumor activity against human HL60 cells at 10^-5 mol/l by MTT assay.
For experiment [3], the system named is HL-60. In words: Antitumor activity against human HL60 cells at 10^-6 mol/l by MTT assay.
For experiment [4], the system named is HL-60. In words: Antitumor activity against human HL60 cells at 10^-7 mol/l by MTT assay.
For experiment [5], the system named is HL-60. In words: Antitumor activity against human HL60 cells at 10^-8 mol/l by MTT assay.
Experiment [6] relates to A549. Description: Antitumor activity against human A549 cells at 10^-4 mol/l by SRB assay. (Sulforhodamine B stains cellular protein and so reports cell mass.)
In experiment [7] the test system is A549. In words: Antitumor activity against human A549 cells at 10^-5 mol/l by SRB assay.
Experiment [8] has as its system A549. Description: Antitumor activity against human A549 cells at 10^-6 mol/l by SRB assay.
The test system of experiment [9] is A549. In words: Antitumor activity against human A549 cells at 10^-7 mol/l by SRB assay.
In experiment [10] the test system is A549. In words: Antitumor activity against human A549 cells at 10^-8 mol/l by SRB assay.

In the case of `CC(C)c1cc2c(c(O)c1O)[C@@]1(C)CCCC(C)(C)C1=C(O)C2=O` [14-DEOXYCOLEON U], the Activity in experiment [1] was determined as 50.6%; in experiment [2], 53.6%; in experiment [3], 11.5%; in [4], 13.9%; in experiment [5], 8.4%; in experiment [6] it was 50.6%. Moreover, the Activity in experiment [7] turned out to be 53.6%; in experiment [8], 11.5%; in experiment [9], 13.9%; in experiment [10] it was 8.4%.

Take `CC(C)c1cc2c(cc1O)[C@@]1(C)CCCC(C)(C)C1=C(O)C2=O`: the Activity in experiment [1] was 55.4%; in experiment [2] it was 54.4%; in experiment [3], 11.9%; in experiment [4] it was 11.9%; in [5] it was 8.3%.

`COc1c(C(C)C)cc2c(c1O)[C@@]1(C)CCCC(C)(C)[C@@H]1[C@@H](O)[C@@H]2OC` [FORTUNIN C]: the Activity in experiment [1] was determined as 58.5%; in experiment [2], 56.2%; in [3] it was 14.4%; in [4], 10.8%; in experiment [5], 9.3%.
